Experiment [1] has as its system FXR target gene expression in the liver. The experiment in a line: liver gene expression by QPCR after 14 days oral FEX-D or SALK110. The experiment is classed as in vivo, Mice. Conditions: 50 mg/kg PO 14 days. The method, then: Mice were treated daily with vehicle, FEX-D, or SALK110 (NSSK00110, 50 mg kg^−1) (see FIG. 29A) by oral (PO) gavage for 14 days, with tissues collected 1 hour after the final treatment. Gene expression changes in the liver were measured by QPCR.

Experiment [2] addresses T1, Human FXR full length (Homo sapiens, UniProt Q96RI1).
T1 construct: Human FXR full length and RXR full length was obtained from Ronald Evans' laboratory; expressed in transfected cells; host or cells: CV-1 cells
T1 sequence (Q96RI1 1-476 isoform Q96RI1-1): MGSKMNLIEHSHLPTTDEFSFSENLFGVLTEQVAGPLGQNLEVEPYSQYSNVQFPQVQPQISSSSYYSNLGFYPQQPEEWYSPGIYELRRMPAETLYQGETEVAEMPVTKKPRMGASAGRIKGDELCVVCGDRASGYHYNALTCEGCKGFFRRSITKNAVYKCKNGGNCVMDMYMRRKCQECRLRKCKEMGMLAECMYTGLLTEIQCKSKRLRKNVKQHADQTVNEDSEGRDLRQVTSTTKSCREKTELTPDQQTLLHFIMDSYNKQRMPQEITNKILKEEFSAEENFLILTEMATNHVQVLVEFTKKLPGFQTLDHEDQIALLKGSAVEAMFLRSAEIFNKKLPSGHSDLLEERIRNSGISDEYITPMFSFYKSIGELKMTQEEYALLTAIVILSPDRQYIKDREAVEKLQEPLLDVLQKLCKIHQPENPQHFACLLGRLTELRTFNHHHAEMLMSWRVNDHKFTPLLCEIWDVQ
T1 sequence (P19793 1-462 partner): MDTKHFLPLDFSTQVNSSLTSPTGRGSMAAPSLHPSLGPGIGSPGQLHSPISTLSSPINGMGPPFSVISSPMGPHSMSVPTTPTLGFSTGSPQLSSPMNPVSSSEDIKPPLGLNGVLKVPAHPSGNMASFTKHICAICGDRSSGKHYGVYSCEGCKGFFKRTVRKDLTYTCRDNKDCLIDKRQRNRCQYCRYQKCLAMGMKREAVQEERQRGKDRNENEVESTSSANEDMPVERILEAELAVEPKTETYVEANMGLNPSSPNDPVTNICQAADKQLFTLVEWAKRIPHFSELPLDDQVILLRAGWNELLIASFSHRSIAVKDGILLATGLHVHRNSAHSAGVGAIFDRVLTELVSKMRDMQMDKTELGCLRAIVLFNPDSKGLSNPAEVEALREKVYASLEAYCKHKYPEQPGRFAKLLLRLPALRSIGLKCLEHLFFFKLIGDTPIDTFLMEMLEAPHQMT
The experiment in a line: FXR activity screen, luciferase reporter in transfected CV-1 cells. Format: cell-based. The gist of the method:
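CV-1 cells in charcoal-stripped serum, transfected with full-length human FXR, RXR, FXRE-luciferase reporter and β-Gal; 48 h expression, then 24 h compound (0.001–100 μM, quadruplicate, 1:1000 DMSO dilution). Luciferase normalized to β-galactosidase; fold induction vs untreated, efficacy relative to fexaramine, EC50 by non-linear regression.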

Experiment [3] concerns ob/ob mice. The experiment in a line: fexaramine and deuterated analogs in ob/ob mice, 2 weeks. The experiment is classed as in vivo. To be noted: 2 weeks at 50 mg/kg PO. How it is done: An in vivo study of fexaramine and selectively-deuterated fexaramine compounds (FIG. 29A) was performed. Briefly, ob/ob mice were treated daily with vehicle, Fex, or deuterated analogs (50 mg kg^−1) by oral (PO) gavage for 2 weeks. Subsequently, body weight, body temperature, fasting blood glucose and insulin levels, insulin secretion, and GLP1 section were measured, and glucose tolerance tests (GTTs) performed.

Experiment [4] has as its system human L cells. The experiment in a line: oxygen consumption rate of intestinal L cells (Seahorse analyzer). Conditions: fexaramine 1 μM for 24 hours. Format: cell-based. How it is done: FIG. 41 is a graph showing the effects of modulating FXR activity on the oxidative metabolism of intestinal L cells. L cells were treated with the FXR agonist fexaramine, the FXR antagonist Guggulsterone, or a combination of both, prior to measurement of their oxygen consumption rate (OCR) in a Seahorse analyzer.
To examine the effects of FXR in the secretion of GLP-1, the metabolic changes induced in human L cells was measured by treatment with the FXR agonist, fexaramine and an FXR antagonist guggulsterone. Treatment of L cells with fexaramine (1 μM for 24 hours) lead to an increase in the oxygen consumption rate (OCR), consistent with increased mitochondrial activity and consequently, an increased energetic state (FIG. 41). The reverse effect was seen after treatment with the FXR antagonist, guggulsterone, with lower OCR after drug treatment.

pEC50: −log10 of the molar value. Where two headings read alike, the source gives them in different places.

For `[2H]C(c1ccc(-c2ccc(N(C)C)cc2)cc1)N(C(=O)C1CCCCC1)c1cccc(/C=C/C(=O)OC)c1` (stereo not shown) [NSSK00077, methyl (E)-3-(3-(N-((4′-(dimethylamino)-[1,1′-biphenyl]-4-yl)methyl-d)cyclohexanecarboxamido)phenyl)acrylate], the “expression of FXR target genes SHP and BSEP in the liver” value in experiment [1] was “fail to alter”. Also, the pEC50 is 6.75 in experiment [2] (first round, CV-1 cells, 24 hours, read-out: 1st RND EC50); 7.01 in experiment [2] (retest, read-out: EC50 (retested)); 6.82 in experiment [2] (second round, CV-1 cells, 24 hours, read-out: 2nd RND EC50). Moreover, the core body temperature result in experiment [3] was “more effective at increasing core body temperature than Fex”. Also, the “fasting blood glucose levels” value in experiment [3] is “significantly reduced”.
Consider `C/C=C1\C(=O)C[C@H]2[C@@H]3CCC4=CC(=O)CC[C@]4(C)[C@H]3CC[C@]12C` [guggulsterone], for which the “oxygen consumption rate (OCR)” value in experiment [4] is “lower OCR”.

The values above are taken from patent US20190084939A1, “ANALOGS OF FEXARAMINE AND METHODS OF MAKING AND USING” (Salk Institute for Biological Studies, priority 2014, published 2019).
